Measurements published in publication PMC8227227 (Viruses, 2021).
Like-named read-outs stand apart in the source and are kept apart here.

Tests used:
[1] = target: T1, HIV-1 PR (Human immunodeficiency virus type 1 group M subtype B, UniProt P04585); conditions: values published previously, cited from earlier work
T1 construct: assayed as substrates of the HIV-1 protease (PR)

[2] = target: T1, HIV-1 PR; experiment: Enzyme assay with synthetic oligopeptide substrates (RP-HPLC); type: biochemical, human immunodeficiency virus type 1 (HIV-1); conditions: for Km / kcat: Table 3, revertant peptides, 37 °C, 1 h; for Km: 0.25 M potassium phosphate pH 5.6, 7.5% glycerol, 1 mM EDTA, 5 mM DTT, 2 M NaCl, RP-HPLC, Michaelis-Menten fit; for kcat: same buffer, peptides not cleaved at threshold given as estimated kcat < 0.01 s^−1; for kcat/Km: Table 3, specificity constant calculated from the Km and kcat values; for cleavability by HIV-1 PR: threshold estimated kcat < 0.01 s^−1

Sequence	Km ([1]; Table 2)	kcat ([1]; Table 2)	kcat/Km ([1]; Table 2)	Km [2]	kcat [2]	further results
KIVKCFFCGK [peptide 2, P1′ substituted NC-1 decapeptide […]]	20 µM	0.900 ^1 s^−1	59.6 ^1 mM^−1 s^−1			
KIVKICFGCGKR [peptide 17, revertant NC-1 cleavage site peptide […]]				70 µM	0.025 s⁻¹	kcat/Km [2]: 0.35 mM⁻¹ s⁻¹
KIVKCFNCGK [peptide 1]	430 µM	0.017 ^1 s^−1	0.040 ^1 mM^−1 s^−1			Km ([1]; Table 3, repeated from Table 2): 430 µM; kcat ([1]; Table 3, repeated from Table 2): 0.017 s⁻¹; kcat/Km ([1]; Table 3, repeated from Table 2): 0.040 mM⁻¹ s⁻¹
RKIVKCFGCIKR [peptide 18, revertant NC-1 cleavage site peptide […]]					<0.010 s⁻¹	cleavability by HIV-1 PR [2]: did not provide a cleavable peptide
KIVKCFGCGK [peptide 14, P1′ substituted NC-1 decapeptide […]]	1340 µM	0.002 ^1 s^−1	0.001 ^1 mM^−1 s^−1			Km ([1]; Table 3, repeated from Table 2): 1340 µM; kcat ([1]; Table 3, repeated from Table 2): 0.002 s⁻¹; kcat/Km ([1]; Table 3, repeated from Table 2): 0.001 mM⁻¹ s⁻¹
RKIVICFGCIKR [peptide 19, revertant NC-1 cleavage site peptide […]]				< 10 µM	0.015 s⁻¹	
KIVTCFGCGK [peptide 15, revertant NC-1 cleavage site peptide […]]					<0.010 s⁻¹	cleavability by HIV-1 PR [2]: did not yield a cleavable peptide
RKIVICFGCGKR [peptide 16, revertant NC-1 cleavage site peptide […]]				35 µM	0.034 s⁻¹	kcat/Km [2]: 0.97 ^5 mM^−1 s^−1
